Results: US9340532B2, “Methods and compositions for inhibiting CNKSR1” (PHUSIS THERAPEUTICS, INC., priority 2012, dated 2016)
Where two headings read alike, the source gives them in different places.

Assays:
AKT1 PH-domain = biological target: T1, AKT1 PH-domain (Homo sapiens, UniProt P31749); test: SPR binding assay (Biacore T100), AKT1 PH-domain; details: for AKT KD: Table 7, curated diversity set; for Kd: read-out: AKT KD
T1 construct: The PH-domain His-fusion proteins (CNK1 and AKT1) were expressed and immobilized on a NTA chip; made in house
T1 sequence (P31749 5-108 limits assumed): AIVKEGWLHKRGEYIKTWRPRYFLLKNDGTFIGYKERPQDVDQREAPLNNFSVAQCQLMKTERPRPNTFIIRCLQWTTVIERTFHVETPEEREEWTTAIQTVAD
Description: (§1) All interaction analyses were done with a Biacore T100 Control Software v3.2, and BIAevaluation v4.1 analysis software (Biacore). The PH-domain His-fusion proteins (CNK1 and AKT1) were expressed and immobilized on a NTA chip to a level of 10,000 response units or less. Small molecule analytes at concentrations ranging from 50 μM to 0.010 μM were injected at a high flow rate (30 μL/min) DMSO concentrations in all samples and running buffer were 1-5% (v/v).
A commercially available docking package, GOLD (GOLD [3.2], CCDC: Cambridge, UK, 2007) was used to evaluate the docking of compounds 1-7 into the binding pocket, see e.g. Table 5. Other docking was performed using modeling algorithms with state-of-the-art commercial drug discovery software (Schrodinger suite). GLIDE was chosen as the docking algorithm used to select and optimize compounds, providing a GlideScore as a rough estimate of binding affinity that was used to rank and select the best compounds. Additionally, ligand-based approaches provided an alternative to structure based drug discovery. Ligand-based virtual screening methodologies can take into account shape and electrostatics (like ROCS) and the pharmacophoric features (acceptor, donor, hydrophobic, aromatic, etc.) of its functional groups. Inositol tetraphosphate (IP4) binding to the PH-domain of CNKSR1 provided a good starting point for shape screening. Both structure-based and ligand-based approaches were used to find novel compounds (Table 7) and to refine and improve lead compounds (Tables 8, and 9). SPR interaction analyses for Compounds 1 through 7 were performed with a Biacore 2000, using Biacore2000 Control Software v3.2 and BIAevaluation v4.1 analysis software (Biacore) as described in Mol Cancer Ther 7:2621 (2008). SPR interaction analyses of all other compounds was undertaken using a Biacore T100 with Control and Evaluation software kit.

[1] = test system: mut-KRAS NSCLC cell lines; test: Screening against NSCLC cell line panel, mut-KRAS lines; type: cell-based; details: for inhibition of mut-KRAS cell growth (in words): FIG. 3 and FIG. 5
Description: (§2) The isogenic KRAS lines harboring G12D, G12C, and G12V were obtained from Horizon Discovery labs on a one year lease. These cells were cultured in McCoys media with 10% FBS to 80% confluency. Cells were then released from flasks via trypsinization and plated into 96-well plates at an initial density range of 2000 cells per well. Cells were allowed 24 hours to attach, and then the agents were added to the culture media at a range of concentrations from 0-100 μM. Cells were incubated for 72 hours with the drugs, and then viability was assessed using an MTS viability assay. Cells were exposed to MTS reagent (Promega) dissolved in PBS (Hyclone) at a concentration of 200 μL reagent/mL media for 2 hours. Absorbance was then read at 490 nm, and viability was expressed as a percentage normalized between the negative control (no cells plated) and the condition of cells with no drug added (100% viability) normalized as the upper limit of viability.
(§3) Our panel of 30 cell lines and an extensive characterization were obtained from Dr. John Minna (UTSW). All cell lines were cultured in RPMI 1640 with 10% FBS. Cells were treated with concentrations of agents at concentrations 0.01 to 50 μM and evaluated as described above. IC50's were determined using Excelfit.

wt-KRAS NSCLC cell lines = test: Screening against NSCLC cell line panel, wt-KRAS lines; type: cell-based; details: for inhibition of wt-KRAS cell growth (in words): FIG. 5
Description: as §2, §3

[2] = test system: H1975 (KRAS wildtype cell line); test: Proliferation Assay H1975; type: cell-based; details: Homo sapiens, NCI-H1975, n = 1
Description: as §2, §3

[3] = test system: H1373 (KRAS mutant cell line); test: Proliferation Assay H1373; type: cell-based; details: Homo sapiens, NCI-H1373, N = 2 experiments
Description: as §2, §3

[4] = Mouse pharmacokinetics (iv); type: in vivo; details: for clearance: in vivo
[5] = test system: H226 (KRAS wildtype cell line); test: Proliferation Assay H226; type: cell-based; details: Homo sapiens, NCI-H226, n = 1
Description: as §2, §3

[6] = test system: A549 (KRAS mutant cell line); test: Proliferation Assay A549; type: cell-based; details: Homo sapiens, N = 2 experiments
Description: as §2, §3

CNK1 PH-domain (CNKSR1) = biological target: T2, CNK1 PH-domain (CNKSR1) (Homo sapiens, UniProt Q969H4); test: SPR binding assay (Biacore T100), CNK1 PH-domain; details: for Surface Plasmon Resonance CNKSR1 binding (RU max) / Surface Plasmon Resonance CNKSR1 stability (RU max post-injection): date 12 09 13
T2 construct: The PH-domain His-fusion proteins (CNK1 and AKT1) were expressed and immobilized on a NTA chip; made in house
T2 sequence (Q969H4 403-502 limits assumed): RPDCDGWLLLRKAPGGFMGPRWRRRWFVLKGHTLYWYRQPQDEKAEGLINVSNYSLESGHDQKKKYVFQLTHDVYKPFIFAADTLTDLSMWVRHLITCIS
Description: as §1
Other docking was performed using modeling algorithms with state-of-the-art commercial drug discovery software (Schrodinger suite). […] Additionally, ligand-based approaches provided an alternative to structure based drug discovery. Ligand-based virtual screening methodologies can take into account shape and electrostatics (like ROCS) and the pharmacophoric features (acceptor, donor, hydrophobic, aromatic, etc.) of its functional groups. […] SPR interaction analyses of all other compounds was undertaken using a Biacore T100 with Control and Evaluation software kit.

[7] = Table 7, read-out: IC50 mut-KRAS
[8] = Table 7, read-out: IC50 WT-KRAS
[9] = Table 5, read-out: Mean IC50 mut-KRAS
[10] = Table 6, mean of 3 mut-KRAS lines, read-out: NSCL cell line cytotoxicity IC50 mut-KRAS
[11] = Table 6, mean of 3 wt-KRAS lines, read-out: NSCL cell line cytotoxicity IC50 wt-KRAS

Compound	IC50 [2] [µM]	IC50 [3] [µM]	IC50 [5] [µM]	IC50 [6] [µM]	Surface Plasmon Resonance CNKSR1 binding (RU max) (CNK1 PH-domain (CNKSR1)) [RU * 100/Da]	Surface Plasmon Resonance CNKSR1 stability (RU max post-injection) (CNK1 PH-domain (CNKSR1)) [RU * 100/Da]	Kd (AKT1 PH-domain; Table 8) [µM]	also measured
O=C(O)CSc1cc(NS(=O)(=O)c2cccs2)c2ccccc2c1O [Compound 12]	–	–	–	–	–	–	–	AKT KD (AKT1 PH-domain): Bound; inhibition of mut-KRAS cell growth (in words) [1]: more potently than compound 7 or its analogs; IC50 [1, 7]: 17 µM; inhibition of wt-KRAS cell growth (in words) (wt-KRAS NSCLC cell lines): more potently than compound 7 or its analogs; IC50 (wt-KRAS NSCLC cell lines; [8]): 12 µM
CCNC(=O)Cc1nn(Cc2nc(-c3ccc(C)cc3)cs2)c(=O)c2ccccc12 [Compound 78]	60	45	60	25	0.224	−0.065	–	Kd (AKT1 PH-domain; Table 6): 2.53 µM; t1/2β [4]: 0.467 h; clearance [4]: 34 mL/min/kg; Kd (CNK1 PH-domain (CNKSR1); Table 6, read-out: CNKS KD): 0.65 µM
O=C(CSc1nnnn1-c1cccc(Cl)c1)c1cc2ccccc2o1 [Compound 121]	–	–	–	–	–	–	–	IC50 [1, 9]: 46.7 ± 3.3 µM
COc1cc(NS(=O)(=O)c2cccs2)c(SC)c(/C=C/C(=O)O)c1O [Compound 104, (2E)-3-[2-hydroxy-3-methoxy-6-(methylsulfanyl)-5-(thiophene-2-sulfonamido)phenyl]prop-2-enoic acid]	> 100	82	75	60	2.132	2.049	4.8	Kd (CNK1 PH-domain (CNKSR1); Table 8, read-out: CNK KD): 1.56 µM
Cc1ccc(-c2csc(Cn3nc(CC(=O)N4CCN(C)CC4)c4ccccc4c3=O)n2)cc1 [Compound 123]	–	–	–	–	–	–	–	t1/2β [4]: 5.45 h; clearance [4]: 31 mL/min/kg
COc1cc(N)c(SC)c(/C=C/C(=O)O)c1O [Compound 108, (2E)-3-[3-amino-6-hydroxy-5-methoxy-2-(methylsulfanyl)phenyl]prop-2-enoic acid]	100	38	55	30	−0.024	0.056	133	Kd (CNK1 PH-domain (CNKSR1); Table 8, read-out: CNK KD): 72.5 µM
CCOC(=O)/C=C/c1c(O)c(O)cc(NS(=O)(=O)c2cccs2)c1SC [Compound 105, ethyl (2E)-3-[2,3-dihydroxy-6-(methylsulfanyl)-5-(thiophene-2-sulfonamido)phenyl]prop-2-enoate]	> 100	42	70	100	−0.676	−0.197	6.22	Kd (CNK1 PH-domain (CNKSR1); Table 8, read-out: CNK KD): 2.86 µM
CCOC(=O)/C=C/c1cc(NS(=O)(=O)c2cccs2)c2c(c1OC)OCO2 [Compound 86, (E)-ethyl 3-(4-methoxy-7-(thiophene-2-sulfonamido)benzo[d][1,3]dioxol-5-yl)acrylate]	> 100	> 100	> 100	> 100	−0.807	−0.197	> 500	Kd (CNK1 PH-domain (CNKSR1); Table 8, read-out: CNK KD): 123 µM
O=C(O)c1ccc2c(c1)C1C=CCC1C(C(=O)O)N2 (stereo not shown) [Compound 56]	–	–	–	–	–	–	–	IC50 [1, 7]: > 100 µM; IC50 (wt-KRAS NSCLC cell lines; [8]): > 100 µM
Cc1ccc(-c2csc(Cn3nc(CC=O)c4ccccc4c3=O)n2)cc1 [Compound 79]	–	–	–	–	–	–	–	t1/2β [4]: 0.583 h; clearance [4]: 30 mL/min/kg; Kd (CNK1 PH-domain (CNKSR1); Table 6, read-out: CNKS KD): 4.2 µM
CSc1c(N)cc(O)c(O)c1/C=C/C(=O)O [Compound 110, (2E)-3-[3-amino-5,6-dihydroxy-2-(methylsulfanyl)phenyl]prop-2-enoic acid]	> 100	28	65	27	0.217	0.032	178	–
Cn1c(Cc2nn(C)c(=O)c3ccccc23)nnc1SCC(=O)c1ccc(Cl)cc1Cl [Compound 119]	–	–	–	–	–	–	–	IC50 [1, 9]: > 50 µM
O=S(=O)(Nc1n[nH]c(SCc2ccc(Cl)cc2)n1)c1ccc(-c2ccccn2)s1 [Compound 118]	–	–	–	–	–	–	–	IC50 [1, 9]: 49.3 ± 0.6 µM
N#Cc1cnn(-c2ccccc2)c1NC(=O)CSc1nnc(-c2ccco2)n1-c1ccc(F)cc1 [Compound 122]	–	–	–	–	–	–	–	IC50 [1, 9]: > 50 µM
Cc1ccc(-c2csc(Cn3nc(Cc4nccs4)c4ccccc4c3=O)n2)cc1 [Compound 10]	–	–	–	–	–	–	–	inhibition of mut-KRAS cell growth (in words) [1]: inhibited the growth; selectivity for mut-KRAS cells compared to wt-KRAS cells ([1]; NSCLC cell lines): approximately two fold; IC50 [1, 10]: 34 µM; t1/2β [4]: 4.08 h; clearance [4]: 119 mL/min/kg; inhibition of wt-KRAS cell growth (in words) (wt-KRAS NSCLC cell lines): also inhibited; IC50 (wt-KRAS NSCLC cell lines; [11]): 46 µM; Kd (CNK1 PH-domain (CNKSR1); Table 6, read-out: CNKS KD): 4.12 µM
CSc1sc(C#N)c(C)c1-c1ccn(S(=O)(=O)c2ccc(Cl)cc2)n1 [Compound 117]	–	–	–	–	–	–	–	IC50 [1, 9]: 21.9 ± 5.7 µM
CCOC(=O)/C=C/c1c(O)c(OC)cc(N)c1SC [Compound 107, ethyl (E)-3-(5-amino-2-hydroxy-3-methoxy-6-methylsulfanylphenyl)prop-2-enoate]	95	45	60	45	−0.174	−0.083	286	Kd (CNK1 PH-domain (CNKSR1); Table 8, read-out: CNK KD): 125 µM
Cc1ccc(-c2nc(SCC(=O)O)c3c(=O)n(C)c(=O)n(C)c3n2)cc1 [Compound 61]	–	–	–	–	–	–	–	IC50 [1, 7]: > 100 µM; IC50 (wt-KRAS NSCLC cell lines; [8]): > 100 µM
Cc1ccc(-c2csc(Cn3nc(CC4OCC(=O)O4)c4ccccc4c3=O)n2)cc1 (stereo not shown) [Compound 11]	–	–	–	–	–	–	–	Kd (AKT1 PH-domain; Table 6): 2.53 µM; inhibition of mut-KRAS cell growth (in words) [1]: inhibited the growth; IC50 [1, 10]: 45 µM; inhibition of wt-KRAS cell growth (in words) (wt-KRAS NSCLC cell lines): also inhibited; IC50 (wt-KRAS NSCLC cell lines; [11]): 56 µM; Kd (CNK1 PH-domain (CNKSR1); Table 6, read-out: CNKS KD): 0.27 µM
O=C(O)COc1cc(OCC(=O)O)c2c3c(c(=O)oc2c1)CCCC3 [Compound 76]	–	–	–	–	–	–	–	AKT KD (AKT1 PH-domain): Bound; IC50 [1, 7]: > 100 µM; IC50 (wt-KRAS NSCLC cell lines; [8]): > 100 µM
CCOC(=O)/C=C/c1c(O)c(O)cc(N)c1SC [Compound 109, ethyl (2E)-3-[3-amino-5,6-dihydroxy-2-(methylsulfanyl)phenyl]prop-2-enoate]	> 100	> 100	> 100	> 100	1.527	0.168	140	Kd (CNK1 PH-domain (CNKSR1); Table 8, read-out: CNK KD): 19.2 µM
Cc1ccc(-c2csc(Cn3nc(NS(=O)(=O)c4cccs4)c4ccccc4c3=O)n2)cc1 [Compound 5]	80	> 100	> 100	90	−0.695	−0.158	–	Kd (AKT1 PH-domain; Table 6): 34.2 µM; Kd (CNK1 PH-domain (CNKSR1); Table 6, read-out: CNKS KD): 51.3 µM
